From ChEMBL document CHEMBL1136411, “Imidazo[4,5-b]pyridines as corticotropin releasing factor receptor ligands” (Bioorg Med Chem Lett, 2003)

Experiments:
[1] = target: T1, Corticotropin releasing factor receptor (Rattus norvegicus, UniProt P47866+P35353); assay: In vitro binding affinity to the CRF receptor in rat cortical homogenates
[2] = Maximal plasma concentration at a dose of 1 mg/kg; type: ADME, organism-based, Canis lupus familiaris; set-up: dose 1 mg/kg; settings: dog
[3] = target: T1, Corticotropin releasing factor receptor; assay: In vitro binding affinity against Corticotropin releasing factor receptor in rat cortical homogenates
Rattus norvegicus = assay: Anxiolytic efficacy in rat after peroral administration; type: functional; settings: po
[4] = Half life was determined; type: ADME, organism-based, Canis lupus familiaris; settings: dog, in vivo
Canis familiaris = assay: Area under the curve at a dose of 1 mg/kg; type: ADME, organism-based, Canis lupus familiaris; set-up: dose 1 mg/kg; settings: dog, in vivo

Structure (SMILES)	Ki [1] [nM]	further results
CCc1nc2c(-c3ccc(C(F)(F)F)cc3Cl)ncnc2n1C(C1CC1)C1CC1	1.8	–
CCCC(C)n1c(CC)nc2c(-c3cc(C)c(OC)cc3C)ccnc21 (stereo unspecified)	0.6	–
CCc1nc2c(-c3ccc(Cl)cc3Cl)ccnc2n1C(CCOC)C1CCC1 (stereo unspecified)	2.4	–
CCC(CCOC)n1c(C2CC2)nc2c(-c3ccc(C(F)(F)F)cc3Cl)ccnc21 (stereo unspecified)	20.8	–
CCc1nc2c(-c3ccc(Cl)cc3Cl)ccnc2n1C(CCOC)C1CC1 (stereo unspecified)	1.5	–
CCc1nc2c(-c3ccc(Cl)cc3Cl)ccnc2n1C(C)C1CCC1 (stereo unspecified)	1	–
CCc1nc2c(-c3ccc(C(F)(F)F)cc3Cl)ccnc2n1C(CC)COC (stereo unspecified)	4.7	–
CCc1nc2c(-c3ccc(Cl)cc3Cl)ccnc2n1[C@H](CC)C1CC1	0.2	–
CCC(CCOC)n1c(COC)nc2c(-c3ccc(C(F)(F)F)cc3Cl)ccnc21 (stereo unspecified)	82.7	–
CCC(CCOC)n1c(OC)nc2c(-c3ccc(OC(F)(F)F)cc3Cl)ccnc21 (stereo unspecified)	1.9	–
CCc1nc2c(-c3ccc(OC(F)F)cc3Cl)ccnc2n1C(C)C1CCC1 (stereo unspecified)	–	Cmax [2]: 185 nM; Ki [3]: 0.7 nM; ED50 (Rattus norvegicus): < 3 mg/kg; half-life [4]: 10 h; AUC (Canis familiaris): 0.795 µM·h
CCc1nc2c(-c3ccc(Cl)cc3Cl)ccnc2n1[C@H](C)C1CC1	0.6	–
CCc1nc2c(-c3ccc(Cl)cc3Cl)ccnc2n1[C@@H](CC)C1CC1	0.4	–

Now from value to compound, other results behind:

Ki [1] [nM]	Structure (SMILES)	further results
0.8	CCCC(C)n1c(CC)nc2c(-c3ccc(OC)cc3C)ccnc21 (stereo unspecified)	–
2.4	CCCC(C)n1c(CC)nc2c(-c3cc(F)c(F)cc3Cl)ccnc21 (stereo unspecified)	–
1	CCc1nc2c(-c3ccc(Cl)cc3Cl)ccnc2n1C(CC)CC	–
3.5	CCCC(C)n1c(CC)nc2c(-c3ccc(C(C)OC)cc3Cl)ccnc21 (stereo unspecified)	–
15.8	CCCC(C)n1c(C(F)F)nc2c(-c3ccc(Cl)cc3Cl)ccnc21 (stereo unspecified)	–
95.6	CCCC(C)n1c(CC)nc2c(-c3ccc(Cl)cc3C(C)=O)ccnc21 (stereo unspecified)	–
6.8	CCCC(C)n1c(CC)nc2c(-c3ccc(S(C)(=O)=O)cc3C(F)(F)F)ccnc21 (stereo unspecified)	–
1.3	CCc1nc2c(-c3ccc(Cl)cc3Cl)ccnc2n1C(C)CC (stereo unspecified)	–
1.1	CCCC(C)n1c(CC)nc2c(-c3ccc(C(F)(F)F)cc3Cl)ccnc21 (stereo unspecified)	Cmax [2]: 159 nM; Ki [3]: 1.1 nM; ED50 (Rattus norvegicus): 3 mg/kg; half-life [4]: 4.9 h; AUC (Canis familiaris): 0.604 µM·h
5.1	CCCC(C)n1c(CC)nc2c(-c3ccc(C(C)O)cc3Cl)ccnc21 (stereo unspecified)	–
1.4	CCCC(C)n1c(CC)nc2c(-c3ccc(SC)cc3C(F)(F)F)ccnc21 (stereo unspecified)	–
1	CCCC(C)n1c(CC)nc2c(-c3ccc(C(C)=O)cc3Cl)ccnc21 (stereo unspecified)	–
0.74	CCCC(C)n1c(CC)nc2c(-c3ccc(OC)cc3C(F)(F)F)ccnc21 (stereo unspecified)	Cmax [2]: 62 nM; Ki [3]: 0.7 nM; ED50 (Rattus norvegicus): 3 mg/kg; half-life [4]: 5.9 h; AUC (Canis familiaris): 0.182 µM·h
2.3	CCCC(C)n1c(CC)nc2c(-c3ccc(/C(C)=N\OC)cc3Cl)ccnc21 (stereo unspecified)	–
